Among the data in US8536192B2, “6,7-unsaturated-7-carbamoyl substituted morphinan derivative” (priority 2005, dated 2013) are Ki and percent antagonism of morphine-inhibited transport (M.P.E.) values, retold here.

pKi: −log10 of the molar value. Where two headings read alike, the source gives them in different places.

The target in assay [1] is opioid δ receptor (Rattus norvegicus (Rat), UniProt P33533). The assay is described as follows: Binding assay of opioid δ receptor ([3H]-DADLE, rat cerebrum membrane). How it is done:
(§1) 1) Method of Preparing Membrane Specimen for Binding Assay
(§2) A rat cerebrum (Slc: SD) which had been stored at −80° C. was used. To a cerebrum which had been weighed was added a 20-fold amount of ice-cooled 10 mM Tris-HCl buffer (pH 7.0), and the mixture was homogenized (25000 rpm, 30 seconds) with Histocolon (NITI-ON), and centrifuged at 36600×g for 20 minutes. To the resulting pellet was added 15 ml of the same buffer, and the mixture was treated with Histocolon similarly, and centrifuged. This washing work was performed two times. After centrifugation, to the resulting pellet was added 15 mL of a 50 mM Tris-HCl buffer (pH 7.4), and this was treated with Histocolon, and finally resuspended in a 10-fold amount of the same buffer, which was used as a crude membrane fraction (Life Sci. 48, 111-116, 1991). The prepared membrane specimen was frozen and stored at −80° C., and at an assay, the specimen was rapidly thawed, and diluted to about 900 μg/mL with a 50 mM Tris-HCl buffer (pH 7.4) after the centrifugation and Histocolon treatment, and was used in an experiment. For measuring a protein concentration of the membrane specimen, Micro BCA Protein Assay Kit (PIERCE) was used.
2) Method of δ Receptor Binding Assay and Data Analysis
Into a tube was placed 480 μl of a rat cerebrum membrane fraction to which 100 mM choline chloride, 3 mM MnCl2 and 100 nM DAMGO had been added, and this was incubated at 25° C. for 2 hours. […] After washing, the filter was transferred to a mini vial for liquid scintillation counter, 5 mL of a scintillator (Cleasol I) was added, this was allowed to stand overnight, and the radioactivity was measured for 3 minutes with a liquid scintillation counter Tri-Carb 2200CA (PACKARD).

Assay [2] has as its target opioid μ receptor (Rattus norvegicus (Rat), UniProt P33535). The assay is described as follows: Binding assay to opioid μ receptor ([3H]-DAMGO, rat cerebrum membrane). How it is done:
as §1
as §2, with “(pH 7.0), the mixture” for “(pH 7.0), and the mixture”, “(pH 7.4), this was” for “(pH 7.4), and this was”, “Histocolon, and this was finally resuspended” for “Histocolon, and finally resuspended”, “and at a test, the specimen” for “and at an assay, the specimen”
2) Method of μ Receptor Binding Assay and Data Analysis
After washing, the filter was transferred to a mini vial for liquid scintillation counter, 5 mL of a scintillator (Cleasol I) was added, and this was allowed to stand overnight, and the radioactivity was measured for 3 minutes with a liquid scintillation counter Tri-Carb 2200CA (PACKARD).

In assay [3] the test system is carbon powder transport of inhibitory activity by morphine. The assay is described as follows: Mouse carbon powder transport assay (antagonism of morphine-inhibited small intestine transport). The class given is in vivo. Conditions: sc, 1 h, test compound 3 mg/kg subcutaneously, 15 minutes before morphine 3 mg/kg. As to the method:
1) Preparation of Test Diet (Carbon Powder)
Using a 10 w/v % arabic gum aqueous solution, a 5 w/v % active carbon solution was prepared, which was used as a test diet.
A ddY line male mouse (5 to 6 weeks old) was used. The mouse was fasted from about 20 or more hours before assay initiation, and water was given ad lib.
The test compound was dissolved in a solvent (DMAA/Solutol/5% meglumine=15/15/70).
Morphine hydrochloride was dissolved in a physiological saline. The test compound, the above solvent and morphine were all administered at a liquid amount of 10 mL/kg.
The test compound 3 mg/kg (test compound administration group) or the solvent (solvent administration group) were subcutaneously administered and, after 15 minutes, amount of 3 mg/kg of morphine was administered to all groups. As a control group, the solvent was subcutaneously administered and, after 15 minutes, a physiological saline was administered.
The test diet 10 mL/kg was orally administered at 15 minutes after administration of morphine. At thirty minutes after administration of the test diet (60 minutes after administration of the test substance), all mice were isolated from esophagus to an ileocecal part near a stomach cardia part. A distance from pyloric part of the stomach to an ileocecal part (full length of small intestine) and a distance until a carbon powder reaching front part (carbon powder movement distance) were measured. The antagonistic activity on the carbon powder transport of inhibitory activity by morphine was calculated as MPE (%) using the following equation. Transport rate (%)=(carbon powder movement distance)/full length of small intestine (cm))×100 M.P.E. (%)={(small intestine transport rate (%) of each individual of test compound administration group−average small intestine transport rate (%) of solvent administration group)/(average small intestine transport rate (%) of control group−average small intestine transport rate (%) of solvent administration group)}×100

[4] abbreviates: [3H]-DADLE, rat cerebrum membrane fraction, read-out: Ki.
Setting [5] is: [3H]-DAMGO, rat cerebrum membrane fraction, read-out: Ki.

As usually defined, the pKi is the negative decadic logarithm of the Ki, by convention in mol/L. `CCCCNC(=O)C1=C(O)[C@@H]2Oc3c(O)ccc4c3[C@@]23CCN(CC2CC2)[C@H](C4)[C@]3(O)C1` [Compound I-3]: the negative logarithm of the Ki (pKi) in assay [1] is 8.06. Turning to `CC(C)NC(=O)C1=C(O)[C@@H]2Oc3c(O)ccc4c3[C@@]23CCN(CC2CC2)[C@H](C4)[C@]3(O)C1` [Compound I-4, 7-Isopropylaminocarbonylnaltrexone], the pKi in assay [2] is 8.29; in assay [1], 8.13. For `O=C(C1=C(O)[C@@H]2Oc3c(O)ccc4c3[C@@]23CCN(CC2CC2)[C@H](C4)[C@]3(O)C1)N1CCCC1` [Compound I-7], the pKi in assay [1] was 8.13. On to `O=C(Nc1ccccc1)C1=C(O)[C@@H]2Oc3c(O)ccc4c3[C@@]23CCN(CC2CC2)[C@H](C4)[C@]3(O)C1` [Compound I-10], for which the figures for the pKi in assay [2] and in assay [1] were 8.39 and 7.70, respectively. `CN(Cc1ccccc1)C(=O)C1=C(O)[C@@H]2Oc3c(O)ccc4c3[C@@]23CCN(CC2CC2)[C@H](C4)[C@]3(O)C1` [Compound I-13]: the pKi in assay [1] is 8.30. Same read-out and setting: for `O=C(NCCOc1ccccc1)C1=C(O)[C@@H]2Oc3c(O)ccc4c3[C@@]23CCN(CC2CC2)[C@H](C4)[C@]3(O)C1` [Compound I-30] the value was 8.27. Turning to `CN(C)c1ccc(NC(=O)C2=C(O)[C@@H]3Oc4c(O)ccc5c4[C@@]34CCN(CC3CC3)[C@H](C5)[C@]4(O)C2)cc1` [Compound I-39], the percent antagonism of morphine-inhibited transport (M.P.E.) at 3 mg/kg in assay [3] worked out at 52%. The pKi in assay [2] was 9.48; in assay [1] it was 7.38.

On to `COC(=O)C(C)(C)NC(=O)C1=C(O)[C@@H]2Oc3c(O)ccc4c3[C@@]23CCN(CC2CC2)[C@H](C4)[C@]3(O)C1` [Compound I-49], for which the percent antagonism of morphine-inhibited transport (M.P.E.) at 3 mg/kg in assay [3] came out at 80%. In addition, the figures for the pKi in assay [2] and in assay [1] (setting [4]) were 7.78 and 8.40, respectively.

Regarding `O=C(Nc1cccnc1)C1=C(O)[C@@H]2Oc3c(O)ccc4c3[C@@]23CCN(CC2CC2)[C@H](C4)[C@]3(O)C1` [Compound I-92], the pKi in assay [1] is 8.28. Turning to `COc1ccc(NC(=O)C2=C(O)[C@@H]3Oc4c(O)ccc5c4[C@@]34CCN(CC3CC3)[C@H](C5)[C@]4(O)C2)cn1` [Compound I-118], the percent antagonism of morphine-inhibited transport (M.P.E.) at 3 mg/kg in assay [3] worked out at 55.6%. In the case of `O=C(NS(=O)(=O)c1cccc(Cl)c1)C1=C(O)[C@@H]2Oc3c(O)ccc4c3[C@@]23CCN(CC2CC2)[C@H](C4)[C@]3(O)C1` [Compound I-122], the percent antagonism of morphine-inhibited transport (M.P.E.) at 3 mg/kg in assay [3] was determined as 31.5%. The negative-log Ki (pKi) in assay [2] (setting [5]) was 8.57. For `COc1ccc(S(=O)(=O)NC(=O)C2=C(O)[C@@H]3Oc4c(O)ccc5c4[C@@]34CCN(CC3CC3)[C@H](C5)[C@]4(O)C2)cc1` [Compound I-123], in assay [3], the percent antagonism of morphine-inhibited transport (M.P.E.) at 3 mg/kg is 44.1%. Also, in assay [2] (setting [5]), the negative-log Ki (pKi) is 8.77.

Consider `O=C(NS(=O)(=O)c1ccc(F)cc1)C1=C(O)[C@@H]2Oc3c(O)ccc4c3[C@@]23CCN(CC2CC2)[C@H](C4)[C@]3(O)C1` [Compound I-124], for which the percent antagonism of morphine-inhibited transport (M.P.E.) at 3 mg/kg in assay [3] came out at 46.6%. Moreover, in assay [2] (read-out: Ki), the pKi was 8.41.

Turning to `COC(=O)C1(NC(=O)C2=C(O)[C@@H]3Oc4c(O)ccc5c4[C@@]34CCN(CC3CC3)[C@H](C5)[C@]4(O)C2)CCCC1` [Compound I-133], in assay [3], the percent antagonism of morphine-inhibited transport (M.P.E.) at 3 mg/kg amounted to 107%. For the same molecule, the pKi is 8.30 in assay [2] (setting [5]) and 8.01 in assay [1] (setting [4]). As to `COC(=O)C1(NC(=O)C2=C(O)[C@@H]3Oc4c(O)ccc5c4[C@@]34CCN(CC3CC3)[C@H](C5)[C@]4(O)C2)CC1` [Compound I-135], the percent antagonism of morphine-inhibited transport (M.P.E.) at 3 mg/kg in assay [3] worked out at 59.7%. In addition, the results for the pKi in assay [2] (read-out: Ki) and in assay [1] (read-out: Ki) were 8.80 and 8.01, respectively.

In the case of `Cc1cc(NC(=O)C2=C(O)[C@@H]3Oc4c(O)ccc5c4[C@@]34CCN(CC3CC3)[C@H](C5)[C@]4(O)C2)on1` [Compound I-138], the percent antagonism of morphine-inhibited transport (M.P.E.) at 3 mg/kg in assay [3] turned out to be 55.8%. The pKi in assay [2] (setting [5]) was 7.81. With `CC(C)NC(=O)C1=C(NS(=O)(=O)c2ccc(Cl)cc2)[C@@H]2Oc3c(O)ccc4c3[C@@]23CCN(CC2CC2)[C@H](C4)[C@]3(O)C1` [Compound I-244], the percent antagonism of morphine-inhibited transport (M.P.E.) at 3 mg/kg in assay [3] was determined as 71.6%.
